Patent US20220281848A1, “PYRAZOLE-SUBSTITUTED PYRROLIDINONES AS HERBICIDES” (FMC Corporation, priority 2019, published 2022)

Legend:
Format in all cases: in vivo
[1] = test system: redroot pigweed (Amaranthus retroflexus, AMARE); assay: Test A pre-emergence, redroot pigweed; conditions: after 13 d
Procedure, shortened: (§1)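 Seeds were sown in standard soil in pots, kept one day in a glasshouse (24/16° C. day/night, 14 h light, 65% humidity), then sprayed with compound in acetone/water (50:50) containing 0.5% Tween 20 at 15.625, 62.5 or 250 g/ha. Plants grew on under the same conditions, watered twice daily, and damage was scored after 13 d (0 = none, 100 = total).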

[2] = test system: velvetleaf (Abutilon theophrasti, ABUTH); assay: Test A pre-emergence, velvetleaf; conditions: after 13 d
Procedure, shortened: as §1

wheat = assay: Test D pre-emergence, wheat seed treated with a herbicide safener; conditions: 100=total damage, 0=no damage
Procedure, shortened: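 Damage, on a scale where 100 is total and 0 is none, was scored 15 d after post-emergence spraying (about 12-day-old plants) or 20 DAA after pre-emergence spraying (day 1). Maize and wheat came from herbicide-safener-treated seed and were kept in a glasshouse (24/18 or 20/16 °C, 16 h light, 65% humidity). The spray liquid was the test formulation diluted in 0.2% v/v aqueous adjuvant.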

plants = assay: Test D post-emergence, other plants of Tables D2 and D4; conditions: post-emergence
Procedure, shortened: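 Damage was rated visually from 0 (none) to 100 (total), at 20 DAA for pre-emergence and 15 d for post-emergence. Plants grew from safener-treated seed in a glasshouse at 24/18° C. or 20/16° C. day/night, 65% humidity, watered twice daily.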

In the case of `CCn1nc([C@H]2CN(C)C(=O)[C@@H]2C(=O)Nc2cccc(F)c2F)c2c(F)cccc21` [Compound 7], the “damage to plant (100=total damage; 0=no damage) AMARE” value ([1]; Pre-Emergence at 15.625 g/ha) is reported as 0, the “damage to plant (100=total damage; 0=no damage) AMARE” value ([1]; Pre-Emergence at 62.5 g/ha) is reported as 0 and the “damage to plant (100=total damage; 0=no damage) AMARE” value ([1]; Pre-Emergence at 250 g/ha) is reported as 0. The “damage to plant (100=total damage; 0=no damage) ABUTH” value ([2]; Pre-Emergence at 15.625 g/ha) was 0, the “damage to plant (100=total damage; 0=no damage) ABUTH” value ([2]; Pre-Emergence at 62.5 g/ha) was 0 and the “damage to plant (100=total damage; 0=no damage) ABUTH” value ([2]; Pre-Emergence at 250 g/ha) was 0. The “damage to plant, TRZAW” value (wheat; rate 15, 20 DAA) was 0, the “damage to plant, TRZAW” value (wheat; rate 30, 20 DAA) was 0 and the “damage to plant, TRZAW” value (wheat; rate 60, 20 DAA) was 0. The “damage to plant, TRZAW” value (wheat; rate 130, 20 DAA) was 0, the “damage to plant, TRZAW” value (wheat; rate 250, 20 DAA) was 0 and the “damage to plant, TRZAW” value (wheat; rate 500, 20 DAA) was 0. For the same compound, the “damage to plant (100=total damage to plant; 0=no damage to plant), ABUTH” value (plants; rate 130, evaluated after 15 d) was 0, the “damage to plant (100=total damage to plant; 0=no damage to plant), ABUTH” value (plants; rate 250, evaluated after 15 d) was 10 and the “damage to plant (100=total damage to plant; 0=no damage to plant), ABUTH” value (plants; rate 500, evaluated after 15 d) was 20. The “damage to plant (100=total damage to plant; 0=no damage to plant), AMARE” value (plants; rate 130, evaluated after 15 d) was 0, the “damage to plant (100=total damage to plant; 0=no damage to plant), AMARE” value (plants; rate 250, evaluated after 15 d) was 0 and the “damage to plant (100=total damage to plant; 0=no damage to plant), AMARE” value (plants; rate 500, evaluated after 15 d) was 10. The “damage to plant (100=total damage to plant; 0=no damage to plant), BIDPI” value (plants; rate 130, evaluated after 15 d) was 0, the “damage to plant (100=total damage to plant; 0=no damage to plant), BIDPI” value (plants; rate 250, evaluated after 15 d) was 0 and the “damage to plant (100=total damage to plant; 0=no damage to plant), BIDPI” value (plants; rate 500, evaluated after 15 d) was 0. The “damage to plant (100=total damage to plant; 0=no damage to plant), BRAPL” value (plants; rate 130, evaluated after 15 d) was 0, the “damage to plant (100=total damage to plant; 0=no damage to plant), BRAPL” value (plants; rate 250, evaluated after 15 d) was 80 and the “damage to plant (100=total damage to plant; 0=no damage to plant), BRAPL” value (plants; rate 500, evaluated after 15 d) was 80. The “damage to plant (100=total damage to plant; 0=no damage to plant), CYPES” value (plants; rate 130, evaluated after 15 d) was 0, the “damage to plant (100=total damage to plant; 0=no damage to plant), CYPES” value (plants; rate 250, evaluated after 15 d) was 0 and the “damage to plant (100=total damage to plant; 0=no damage to plant), CYPES” value (plants; rate 500, evaluated after 15 d) was 0. The “damage to plant (100=total damage to plant; 0=no damage to plant), DIGSA” value (plants; rate 130, evaluated after 15 d) was 0, the “damage to plant (100=total damage to plant; 0=no damage to plant), DIGSA” value (plants; rate 250, evaluated after 15 d) was 80 and the “damage to plant (100=total damage to plant; 0=no damage to plant), DIGSA” value (plants; rate 500, evaluated after 15 d) was 80. For the same compound, the “damage to plant (100=total damage to plant; 0=no damage to plant), ECHCG” value (plants; rate 130, evaluated after 15 d) was 20, the “damage to plant (100=total damage to plant; 0=no damage to plant), ECHCG” value (plants; rate 250, evaluated after 15 d) was 70 and the “damage to plant (100=total damage to plant; 0=no damage to plant), ECHCG” value (plants; rate 500, evaluated after 15 d) was 70. The “damage to plant (100=total damage to plant; 0=no damage to plant), EPHHL” value (plants; rate 130, evaluated after 15 d) was 0, the “damage to plant (100=total damage to plant; 0=no damage to plant), EPHHL” value (plants; rate 250, evaluated after 15 d) was 20 and the “damage to plant (100=total damage to plant; 0=no damage to plant), EPHHL” value (plants; rate 500, evaluated after 15 d) was 40. For the same compound, the “damage to plant (100=total damage to plant; 0=no damage to plant), GLXMA” value (plants; rate 130, evaluated after 15 d) was 0, the “damage to plant (100=total damage to plant; 0=no damage to plant), GLXMA” value (plants; rate 250, evaluated after 15 d) was 0 and the “damage to plant (100=total damage to plant; 0=no damage to plant), GLXMA” value (plants; rate 500, evaluated after 15 d) was 0. For the same compound, the “damage to plant (100=total damage to plant; 0=no damage to plant), IPOHE” value (plants; rate 130, evaluated after 15 d) was 0, the “damage to plant (100=total damage to plant; 0=no damage to plant), IPOHE” value (plants; rate 250, evaluated after 15 d) was 0 and the “damage to plant (100=total damage to plant; 0=no damage to plant), IPOHE” value (plants; rate 500, evaluated after 15 d) was 0. For the same compound, the “damage to plant (100=total damage to plant; 0=no damage to plant), ORYSA” value (plants; rate 130, evaluated after 15 d) was 0, the “damage to plant (100=total damage to plant; 0=no damage to plant), ORYSA” value (plants; rate 250, evaluated after 15 d) was 0 and the “damage to plant (100=total damage to plant; 0=no damage to plant), ORYSA” value (plants; rate 500, evaluated after 15 d) was 0. The “damage to plant (100=total damage to plant; 0=no damage to plant), PANMI” value (plants; rate 130, evaluated after 15 d) was 0, the “damage to plant (100=total damage to plant; 0=no damage to plant), PANMI” value (plants; rate 250, evaluated after 15 d) was 0 and the “damage to plant (100=total damage to plant; 0=no damage to plant), PANMI” value (plants; rate 500, evaluated after 15 d) was 0. For the same compound, the “damage to plant (100=total damage to plant; 0=no damage to plant), SETFA” value (plants; rate 130, evaluated after 15 d) was 0, the “damage to plant (100=total damage to plant; 0=no damage to plant), SETFA” value (plants; rate 250, evaluated after 15 d) was 70 and the “damage to plant (100=total damage to plant; 0=no damage to plant), SETFA” value (plants; rate 500, evaluated after 15 d) was 70. For the same compound, the “damage to plant (100=total damage to plant; 0=no damage to plant), SIDSP” value (plants; SIDSP, rate 500, evaluated after 15 d) was 30, the “damage to plant (100=total damage to plant; 0=no damage to plant), SORVU” value (plants; rate 130, evaluated after 15 d) was 0 and the “damage to plant (100=total damage to plant; 0=no damage to plant), SORVU” value (plants; rate 250, evaluated after 15 d) was 0. The “damage to plant (100=total damage to plant; 0=no damage to plant), SORVU” value (plants; rate 500, evaluated after 15 d) was 60.
